From US20250257075A1, “MACROCYCLIC INHIBITORS OF KRAS FOR THE TREATMENT OF CANCER” (Hoffmann-La Roche Inc., priority 2022, published 2025)

What was measured:
Type in all cases: cell-based
Conditions in all cases: Homo sapiens, MIA PaCa-2, 72 h, 3 d, CellTiter-Glo
[1] = tested on: Miapaca-2 mutant cells KRAS G12C + D92R; experiment: Stable KRAS mutant cell line viability assay (CTG), G12C + D92R
Excerpt: (§1) The aim of the study was to determine the potency and efficacy of compounds for cell proliferation using CellTiter-Glo® (CTG) Luminescent Cell Viability Assay (Promega Corp., Madison, WI). We cloned […] KRAS^G12C variant sequences with secondary mutations (V8A, V9Y, S17E, T58I, A59T, S65W, R68S, D69P, M72I, D92R, H95N, Y96D, Q99F, Q99W, Y96H, and F156L) into the Miapaca-2. Totally 14 stable Miapaca-2 mutant cell lines were established through lentivirus infection. For the cell viability assay, cells were dosed with compounds in a 9-point dose-response using a 4 fold dilution series at a top dose of 10 μM. KRAS mutant cells were maintained in DMEM+10% FBS+2.5% HI Horse serum+1% PS+1 μg/mL Puromycin and seeded into 96-well plates at 800-1,500 cells per well 24 h before compound addition and then incubated with compound for 3 d before assaying viability (CellTiter-Glo, Promega). Assays were performed in biological duplicates. Nonlinear regression curves were fitted using Xfit. IC50 (absolute IC50) is the dose at which the estimated viability is 50% relative to untreated wells.

[2] = tested on: Miapaca-2 mutant cells KRAS G12C + V8A; experiment: Stable KRAS mutant cell line viability assay (CTG), G12C + V8A
Excerpt: as §1

[3] = tested on: Miapaca-2 mutant cells KRAS G12C + R68S; experiment: Stable KRAS mutant cell line viability assay (CTG), G12C + R68S
Excerpt: as §1

[4] = tested on: Miapaca-2 mutant cells KRAS G12C + V9Y; experiment: Stable KRAS mutant cell line viability assay (CTG), G12C + V9Y
Excerpt: as §1

[5] = tested on: Miapaca-2 mutant cells KRAS G12C + M72I; experiment: Stable KRAS mutant cell line viability assay (CTG), G12C + M72I
Excerpt: as §1

[6] = tested on: Miapaca-2 mutant cells KRAS G12C + F156L; experiment: Stable KRAS mutant cell line viability assay (CTG), G12C + F156L
Excerpt: as §1

[7] = tested on: Miapaca-2 mutant cells KRAS G12C + D60P; experiment: Stable KRAS mutant cell line viability assay (CTG), G12C + D60P
[8] = tested on: Miapaca-2 mutant cells KRAS G12C + Y96D; experiment: Stable KRAS mutant cell line viability assay (CTG), G12C + Y96D
Excerpt: as §1

[9] = tested on: Miapaca-2 mutant cells KRAS G12C + Q99W; experiment: Stable KRAS mutant cell line viability assay (CTG), G12C + Q99W
Excerpt: as §1

[10] = tested on: Miapaca-2 mutant cells KRAS G12C + S17E; experiment: Stable KRAS mutant cell line viability assay (CTG), G12C + S17E
Excerpt: as §1

[11] = tested on: Miapaca-2 mutant cells KRAS G12C + H95N; experiment: Stable KRAS mutant cell line viability assay (CTG), G12C + H95N
Excerpt: as §1

[12] = tested on: Miapaca-2 mutant cells KRAS G12C + S65W; experiment: Stable KRAS mutant cell line viability assay (CTG), G12C + S65W
Excerpt: as §1

[13] = tested on: Miapaca-2 mutant cells KRAS G12C + A59T; experiment: Stable KRAS mutant cell line viability assay (CTG), G12C + A59T
Excerpt: as §1

[14] = tested on: Miapaca-2 mutant cells KRAS G12C + T58I; experiment: Stable KRAS mutant cell line viability assay (CTG), G12C + T58I
Excerpt: as §1

With `CCn1c(-c2cc(N3CCOCC3)cnc2[C@H](C)OC)c2c3cc(c(F)cc31)-c1csc(n1)C[C@H](NC(=O)[C@H](C(C)C)N(C)C(=O)[C@H]1C[C@@H](C#CC(F)(F)F)C1)C(=O)N1CCC[C@H](N1)C(=O)OCC(C)(C)C2` (atropisomer, axis not shown; (M)) [Example 11, cis-N-[(1S)-1-[[(7S,13S)-21-ethyl-24-fluoro-(20M)-20-[2-[(1S)-1-methoxyethyl]-5-morpholino-3-pyridyl]-17,17-dimethyl-8,14-dioxo-15-oxa-4-thia-9,21,27,28-tetrazapentacyclo[17.5.2.1^2,5.1^9,13.0^22,26]octacosa-1(25),2,5(28),19,22(26),23-hexaen-7-yl]carbamoyl]-2-methyl-propyl]-N-methyl-3-(3,3,3-trifluoroprop-1-ynyl)cyclobutanecarboxamide] the IC50 [1] was 0.002 µM, the IC50 [2] was 0.001 µM and the IC50 [3] was 0.022 µM. It also gave an IC50 [4] of 0.003 µM, an IC50 [5] of 0.001 µM and an IC50 [6] of 0.003 µM. For the same compound, the IC50 [7] was 0.097 µM, the IC50 [8] was 0.006 µM and the IC50 [9] was 0.003 µM. It also gave an IC50 [10] of 0.003 µM, an IC50 [11] of 0.003 µM and an IC50 [12] of 0.003 µM. For the same compound, the IC50 [13] was 0.032 µM and the IC50 [14] was 0.003 µM.
